According to patent US8952024B2, “Herbicidal pyrimidone derivatives” (E I du Pont de Nemours and Company, priority 2009, dated 2015):

Key:
Type in all cases: in vivo
[1] = tested on: chickweed (Stellaria media); assay: Test B postemergence plant response; settings: Postemergence
Method in brief: (§1)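 Visual ratings from 0 (no effect) to 100 (complete control), made against controls 13–15 days after treatment, kept in a greenhouse. Compounds were applied postemergence to potted plants at the 1- to 4-leaf stage (2–18 cm).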

[2] = tested on: canarygrass (Phalaris minor); assay: Test B postemergence plant response; settings: Postemergence
Method in brief: as §1

[3] = tested on: winter barley (Hordeum vulgare); assay: Test B postemergence plant response; settings: Postemergence
Method in brief: as §1

[4] = tested on: windgrass (Apera spica-venti); assay: Test B postemergence plant response; settings: Postemergence
Method in brief: as §1

[5] = tested on: large crabgrass (Digitaria sanguinalis); assay: Test A pre-/postemergence plant response; settings: for Crabgrass, Large plant response rating: visual injury, 0 to 100 scale (0 no effect, 100 complete control), approx. ten days
Method in brief: (§2)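 Both pre- and postemergence treatments are applied simultaneously, using chemicals formulated in a non-phytotoxic solvent mixture with surfactant. Postemergence plants are 2–10 cm high with one to two leaves. After approximately ten days in a greenhouse, injury is scored visually from 0 (none) to 100 (complete control) relative to untreated plants.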

[6] = tested on: velvetleaf (Abutilon theophrasti); assay: Test A pre-/postemergence plant response; settings: for Velvetleaf plant response rating: visual injury, 0 to 100 scale (0 no effect, 100 complete control), approx. ten days
Method in brief: as §2

[7] = tested on: pigweed (Amaranthus retroflexus); assay: Test A pre-/postemergence plant response; settings: for Pigweed plant response rating: visual injury, 0 to 100 scale (0 no effect, 100 complete control), approx. ten days
Method in brief: as §2

[8] = tested on: morningglory (Ipomoea spp.); assay: Test A pre-/postemergence plant response; settings: for Morningglory plant response rating: visual injury, 0 to 100 scale (0 no effect, 100 complete control), approx. ten days
Method in brief: as §2

[9] = tested on: wheat (Triticum aestivum); assay: Test A pre-/postemergence plant response; settings: for Wheat plant response rating: visual injury, 0 to 100 scale (0 no effect, 100 complete control), approx. ten days
Method in brief: as §2

[10] = tested on: barnyardgrass (Echinochloa crus-galli); assay: Test A pre-/postemergence plant response; settings: for Barnyardgrass plant response rating: visual injury, 0 to 100 scale (0 no effect, 100 complete control), approx. ten days
Method in brief: as §2

[11] = tested on: corn (Zea mays); assay: Test A pre-/postemergence plant response; settings: for Corn plant response rating: visual injury, 0 to 100 scale (0 no effect, 100 complete control), approx. ten days
Method in brief: as §2

[12] = tested on: giant foxtail (Setaria faberii); assay: Test A pre-/postemergence plant response; settings: for Foxtail, Giant plant response rating: visual injury, 0 to 100 scale (0 no effect, 100 complete control), approx. ten days
Method in brief: as §2

[13] = 31 g ai/ha, 0 to 100 scale (0 no effect, 100 complete control)
[14] = 62 g ai/ha, scale 0 to 100 (0 no effect, 100 complete control)
[15] = 125 g ai/ha, scale 0 to 100 (0 no effect, 100 complete control)
[16] = 250 g ai/ha, scale 0 to 100 (0 no effect, 100 complete control), 13 to 15 days
[17] = Postemergence, 125 g ai/ha, 0 to 100 scale where 0 is no effect and 100 is complete control
[18] = Preemergence, 125 g ai/ha, 0 to 100 scale, 0 = no effect, 100 = complete control
[19] = Preemergence, 500 g ai/ha, 0 to 100 scale, 0 = no effect, 100 = complete control

Cc1cc(-n2c(-c3cccc(F)c3)ncc(C(=O)C3=C(O)CCCC3=O)c2=O)ccc1F [Compound 191]
70: Plant response rating, Barley [3, 16] | Plant response rating, Crabgrass, Large [5, 17] | Plant response rating, Morningglory [8, 19]
55: Plant response rating, Windgrass [4, 13]
90: Pigweed plant response rating ([7]; Postemergence, 500 g ai/ha) | Plant response rating, Morningglory [8, 17] | Plant response rating, Barnyardgrass [10, 17] | Plant response rating, Foxtail, Giant [12, 19]
5: Plant response rating, Barley [3, 13]
50: Plant response rating, Canarygrass [2, 14] | Plant response rating, Barley [3, 14] | Plant response rating, Barley [3, 15] | Plant response rating, Crabgrass, Large [5, 18] | Wheat plant response rating ([9]; Postemergence, 500 g ai/ha) | Corn plant response rating ([11]; Postemergence, 500 g ai/ha)
100: Plant response rating, Chickweed [1, 16] | Plant response rating, Windgrass [4, 16] | Crabgrass, Large plant response rating ([5]; Postemergence, 500 g ai/ha) | Plant response rating, Crabgrass, Large [5, 19] | Plant response rating, Velvetleaf [6, 17] | Velvetleaf plant response rating ([6]; Postemergence, 500 g ai/ha) | Plant response rating, Velvetleaf [6, 19] | Plant response rating, Pigweed [7, 19] | Morningglory plant response rating ([8]; Postemergence, 500 g ai/ha) | Barnyardgrass plant response rating ([10]; Postemergence, 500 g ai/ha) | Foxtail, Giant plant response rating ([12]; Postemergence, 500 g ai/ha)
0: Plant response rating, Morningglory [8, 18] | Plant response rating, Wheat [9, 17] | Plant response rating, Wheat [9, 18] | Plant response rating, Corn [11, 17] | Plant response rating, Corn [11, 18]
40: Plant response rating, Foxtail, Giant [12, 18]
10: Plant response rating, Barnyardgrass [10, 18]
80: Plant response rating, Pigweed [7, 17] | Plant response rating, Pigweed [7, 18] | Plant response rating, Barnyardgrass [10, 19] | Plant response rating, Foxtail, Giant [12, 17]
85: Plant response rating, Canarygrass [2, 16] | Plant response rating, Windgrass [4, 14] | Plant response rating, Windgrass [4, 15]
98: Plant response rating, Chickweed [1, 13] | Plant response rating, Chickweed [1, 14] | Plant response rating, Chickweed [1, 15]
30: Plant response rating, Corn [11, 19]
60: Plant response rating, Canarygrass [2, 15] | Plant response rating, Velvetleaf [6, 18]
20: Plant response rating, Canarygrass [2, 13] | Plant response rating, Wheat [9, 19]

O=C1CCCC(O)=C1C(=O)c1cnc(-c2ccc(F)cc2)n(C2CCCCC2)c1=O [Compound 197]
40: Plant response rating, Canarygrass [2, 15] | Plant response rating, Barley [3, 16] | Plant response rating, Velvetleaf [6, 18] | Plant response rating, Barnyardgrass [10, 19]
0: Plant response rating, Barley [3, 13] | Plant response rating, Crabgrass, Large [5, 18] | Plant response rating, Morningglory [8, 18] | Plant response rating, Wheat [9, 17] | Wheat plant response rating ([9]; Postemergence, 500 g ai/ha) | Plant response rating, Wheat [9, 18] | Plant response rating, Barnyardgrass [10, 18] | Plant response rating, Corn [11, 18] | Plant response rating, Foxtail, Giant [12, 18]
60: Plant response rating, Canarygrass [2, 16] | Plant response rating, Crabgrass, Large [5, 19] | Plant response rating, Morningglory [8, 19]
5: Plant response rating, Canarygrass [2, 13] | Plant response rating, Barley [3, 14]
30: Plant response rating, Canarygrass [2, 14] | Plant response rating, Corn [11, 19]
50: Plant response rating, Windgrass [4, 14] | Corn plant response rating ([11]; Postemergence, 500 g ai/ha) | Plant response rating, Foxtail, Giant [12, 19]
90: Plant response rating, Velvetleaf [6, 19]
20: Plant response rating, Pigweed [7, 18] | Plant response rating, Wheat [9, 19] | Plant response rating, Corn [11, 17]
70: Plant response rating, Crabgrass, Large [5, 17]
80: Plant response rating, Barnyardgrass [10, 17] | Plant response rating, Foxtail, Giant [12, 17]
100: Plant response rating, Chickweed [1, 13] | Plant response rating, Chickweed [1, 14] | Plant response rating, Chickweed [1, 15] | Plant response rating, Chickweed [1, 16] | Crabgrass, Large plant response rating ([5]; Postemergence, 500 g ai/ha) | Plant response rating, Velvetleaf [6, 17] | Velvetleaf plant response rating ([6]; Postemergence, 500 g ai/ha) | Plant response rating, Pigweed [7, 17] | Pigweed plant response rating ([7]; Postemergence, 500 g ai/ha) | Plant response rating, Pigweed [7, 19] | Plant response rating, Morningglory [8, 17] | Morningglory plant response rating ([8]; Postemergence, 500 g ai/ha) | Barnyardgrass plant response rating ([10]; Postemergence, 500 g ai/ha) | Foxtail, Giant plant response rating ([12]; Postemergence, 500 g ai/ha)
10: Plant response rating, Barley [3, 15] | Plant response rating, Windgrass [4, 13]
98: Plant response rating, Windgrass [4, 16]
